“Also recorded” adds a separate entry of the source. Where a SMILES comes first, the peptide text is derived from it. The star is where a group is joined. Cbz = O=C(OCc1ccccc1)*
B1: 5F11: fully human monoclonal antibody directed against CD30; VH SEQ ID NO: 10, VL SEQ ID NO: 12 (antibody, listed as Homo sapiens, V domains shown)
VH: QVQLQQWGAGLLKPSETLSLTCAVYGGSFSAYYWSWIRQPPGKGLEWIGDINHGGGTNYNPSLKSRVTISVDTSKNQFSLKLNSVTAADTAVYYCASLTAYWGQGSLVTVSS
VL: DIQMTQSPTSLSASVGDRVTITCRASQGISSWLTWYQQKPEKAPKSLIYAASSLQSGVPSRFSGSGSGTDFTLTISSLQPEDFATYYCQQYDSYPITFGQGTRLEIK

Legend:
L540 cells [1] = experiment: Annexin V binding assay (annexinV-FITC staining, FACS); type: cell-based, human; conditions: each agent alone, subtoxic concentrations
Method: FIG. 1: Induction of apoptosis in L540 cells after treatment with 5F11 and MG132 L540 cells were cultured for 16 h with PBS (control), crosslinked 5F11, MG132 or a combination of 5F11 and MG132. The apoptotic cells were labeled by annexinV-FITC staining and the percentage of viable and apoptotic cells is given as estimated in FACS analysis. The results of three independent experiments are shown.
2×10^5 L540 cells were incubated (in triplicate) either with 5F11/GaH, bortezomib, or both, or in plain medium as described above at 37° C. for 12 h. To detect apoptotic cells, the translocation of phosphatidylserine to the outer leaflet of the plasma membrane was determined by flow cytometry (FACS calibur Bengton & Dickinson Flow Cytometer) after staining with annexin V conjugated to fluorescein as recommended (Annexin V-FITC apoptosis detection kit I, BD Bioscience, USA). Triplicateswere used to calculate means and standard deviations.

L428 cells [2] = experiment: XTT viability assay; type: cell-based, human
Source text: (§1) Each measurement was done in triplicate.

L540 cells [3] = experiment: XTT viability assay; type: cell-based, human
Source text: as §1

[4] = test system: subcutaneous L540Cy Hodgkin tumors; experiment: Xenograft model of human HD; type: in vivo; conditions: SCID mice; for tumor growth compared to the control group receiving PBS: 100 μg 5F11 i.p., 10 ng bortezomib i.v. 6 hours later, 4 injections; for tumor growth in the weeks after treatment: several weeks after the 4 injections
Method: FIG. 3: Effect of 5F11 and bortezomib on the tumor growth of subcutaneous L540Cy Hodgkin tumors in SCID mice. The mice were randomly divided into four groups when the L540 derived tumors reached a volume of about 100 mm3 to receive PBS, 5F11 (100 μg), bortezomib (10 ng) or the combination of 5F11 and bortezomib. The tumor volume of each mouse is given. The arrows indicate the days of treatment.
The xenograft model of human HD has been described previously (17). Subcutaneous solid L540Cy tumors were established by injection of L540Cy cells (1×10^7) resuspended in 200 μL PBS into the right flank of pathogen-free severe combined immunodeficiency (SCID) mice (FOX CHASE SCID; Taconic M&B A/S, Ry, Denmark). Tumor development was measured every 3 days and the tumor volume was determined using the formula (length×width×height/2). Animals with established tumors of about 100 mm^3 were divided randomly into four groups, which received 100 μg 5F11 (in 200 μL PBS intraperitoneally) and 6 hours later 10 ng bortezomib i.v. by tail vein or each agent alone for a total of 4 injections. Control mice received PBS only. The experiment was stopped and the mice killed when the median […] in the control group exceeded 2500 mm^3 (day 50). The treatment and control groups consisted of 4 animals each and results were confirmed by repeating the experiments.

[5] = test system: NF-κB subunit p65 in L540 cells; experiment: Detection of NF-κB subunit p65 with indirect immunofluorescence; type: cell-based, human; conditions: for expression level and nuclear localisation of NF-κB (p65 staining): L540 cells, crosslinked 5F11 or bortezomib
Method: (§2) Cytospins were provided (1 min at 1000 U/min) to determine the effect of 5F11 and/or bortezomib on apoptosis and NFκB-activation in L428 and L540 cells on the single cell level. 2×10^5 cells were seeded in six-well microtiter plates in 3 ml plain media (control) or with 5F11+GaH (5 μg/25 μg per ml) or bortezomib (10 nM) or both. Incubation time was 30 min for 5F11, 1 h for crosslinking GaH and at least six hours for bortezomib, all at 37° C. The slides were dried overnight at room temperature and fixed using ice-cold acteone (30 sec incubation). The TUNEL assay was performed using the In Situ Cell Death Detection Kit, TMR red (Roche) according to the manufacturers instructions. Finally, cells were mounted with VECTASHIELD Mounting Medium containing DAPI (Vector Laboratories, Burlingame, Calif.) or stained with an rabbit-anti-p65 antibody (Santa Cruz, 10 nM) and a second FITC-labeled mouse-anti-rabbit antibody (10 nM). Cytospin preparations were analyzed by fluorescence microscopy.
In order to exclude non-specific antibody binding, slides of untreated cells were stained either with rabbit-anti-p65-IgG, or FITC-conjugated mouse-anti-rabbit-IgG, or DAPI.

[6] = test system: NF-κB-responsive luciferase reporter gene in L428 cells; experiment: Transient transfection and luciferase reporter gene assay; type: cell-based, human; conditions: L428 transfected with pNF-κB-luc
Method: L428 cells were transfected with either the reporter constructs pCMV-luc (transfection control) or pNF-κB-luc (bar 2-4) or pNF-κB-luc together with the expression vector IkBM (bar 5-7). The transfection efficacy was about 10% and the total amount of DNA was kept constant. After an over night recovery period transfectants were treated with PBS (basal), 5F11 or bortezomib for 24 hours. The luciferase activity (RLU) of the cells were measured and is given to indicate the relative levels of NF-κB-dependent promoter activity.
5×10^6 L428 cells in 1 ml medium were transiently transfected by means of electroporation with 10 μg NF-κB-luc, IkBaM and CMV-GFP. Cells were seeded into six-well plates with additional 2 ml of plain medium. After 24 h incubation at 37° C., GFP transfected cells were examined for green flourescence as indicator of transfection efficacy, which varied from 5% to 10%. Cells were incubated either with 20 μg/ml 5F11+100 μg/ml GaH for 2 h, or with 10 ng/ml bortezomib or both or plain media for 12 h at 37° C. After harvesting the cells were washed twice in PBS (phosphate buffered saline).
Lysis was performed using 1 ml ice-cold reporter lysis buffer (Promega), and lysates were frozen at −70° C. for 1 hour. Luciferase activity was measured using 30 μl lysate in a 96-well luminometry-plate and analyzed by luminometry. Untreated cells, transfected with the reporter gene were used to obtain baseline NF-κB-activity. All assays were done in triplicate to obtain means and standard deviations.

c-flip in L428 cells = experiment: SDS-PAGE and Western blotting; type: cell-based, human; conditions: CD30 stimulation with 5F11, co-incubation with bortezomib for 6, 8 and 16 hours
Method: (§3) Whole cell protein extracts were prepared in 1× Laemmli solution (10 μg) were separated using sodium dodecyl sulfate polyacrylamide gel electrophoresis (SDS-PAGE) using 4-15% gels. Proteins were transferred to a nitrocellulose membrane (Hybond-C, Amersham Pharmacia Biotech Inc., Freiburg, Germany) and blocked with Roti-Block (Roth, Karlsruhe, Germany) for 1 h at room temperature. Immunoblots were incubated with the primary antibodies obtained from the Apoptosis Sampler Kits I and II (BD Bioscience, CA) in PBS with 10% fetal calf serum as recommended. The c-flip specific antibody was purchased from Sigma (F-6550). Bound antibodies were detected with horseradish peroxidase-conjugated secondary donkey-anti-mouse or rabbit-IgG mAb (Dianova, Hamburg, Germany) or horseradish peroxidaseconjugated goat-anti-mouse IgG (Dianova) diluted 1/10000. The proteins were visualized using the ECL Western blotting detection reagents (Amersham Pharmacia) according to manufacturers instructions.

c-flip in L540 cells = experiment: SDS-PAGE and Western blotting; type: cell-based, human; conditions: CD30 stimulation with 5F11, co-incubation with bortezomib for 6, 8 and 16 hours
Method: as §3

[7] = test system: bcl-2, bax, TRADD and FADD; experiment: SDS-PAGE and Western blotting of candidate proteins related to NF-κB activation; type: cell-based, human; conditions: following 5F11 crosslinking or bortezomib treatment
Method: as §3

Karpas 299 cells = experiment: XTT viability assay; conditions: Karpas299, 5F11 + GaH pre-incubated 30 minutes, versus absence of 5F11, 48 hours
REH cells [8] = experiment: XTT viability assay, CD30-negative control line; conditions: REH cells (do not express CD30), bortezomib alone
Source text: (§5) An XTT-assay showing viability of the Hodgkin cell lines L540 (A), L428 (B) and the ALCL line Karpas299 (C) and the CD30 negative cell line REH (E) after exposure to increasing amounts of bortezomib in the presence (diamond) or absence (triangle) of 5F11.

L540 cells [9] = experiment: TUNEL assay with 5F11 binding staining (GaH-FITC); type: cell-based, human
Method: as §2
The cellular reponse to 5F11 in the partial apoptosis-resistent HD-derived cell line L540 on the single cell level was analyzed. To visualize binding of 5F11 and apoptosis simultaneously, L540 cells were incubated with 5F11 and a FITC labeled crosslinking goat-anti human antibody before performing a TUNEL assay. […]

[10] = test system: NF-κB DNA binding in L428 cells; experiment: Electrophoretic mobility shift assay (EMSA); type: cell-based, human; conditions: L428 nuclear extract, crosslinked antibody
Method: (§4) Electrophoretic mobility shift assays (EMSA) were performed to visualize binding of NF-κB to DNA. Nuclear protein extract (5 μg; 20 mM HEPES, pH 7.9, 400 mM NaCl, 1 mM EDTA, 1 mM EGTA) from cells treated with different antibodies were incubated with ^32P-labeled oligonucleotides with the NF-κB binding sequence (Santa Cruz) for 30 minutes at room temperature. The DNA/protein complexes were separated using electrophoresis on 6% native polyacrylamide gels.

[11] = test system: NF-κB DNA binding in L540 cells; experiment: Electrophoretic mobility shift assay (EMSA); type: cell-based, human; conditions: L540 nuclear extract, crosslinked antibody
Method: as §4

REH cells [12] = test system: REH cells
Source text: as §5

L428 cells [13] = conditions: 5F11 alone, even at higher concentrations (ref. 17); cited from earlier work

Row | Molecule | enhancement of apoptosis compared to the control (annexin-V staining and FACS analysis) (L540 cells [1]) | tumor growth compared to the control group receiving PBS [4] | tumor growth in the weeks after treatment [4] | expression level and nuclear localisation of NF-κB (p65 staining) [5] | expression of c-flip (Western blotting) (c-flip in L428 cells) | expression of c-flip (Western blotting) (c-flip in L540 cells) | bcl-2 and bax expression (Western blotting) [7] | expression levels of TRADD and FADD (Western blotting) [7] | further results
1 | CC(C)C[C@@H](C=O)NC(=O)[C@H](CC(C)C)NC(=O)[C@H](CC(C)C)NC(=O)OCc1ccccc1 [MG132, carbobenzoxyl-leucinyl-leucynil-leucynal, reference compound] (Cbz-Leu-Leu-Leu-aldehyde) | did not enhance apoptosis | – | – | – | – | – | – | – | –
2 | CC(C)C[C@H](NC(=O)[C@H](Cc1ccccc1)NC(=O)c1cnccn1)B(O)O [bortezomib, reference compound] | – | significantly delayed tumor growth | tumor progression | exclusion of NF-κB from the cell nuclei | downregulation | downregulation | Only minor changes | remained unaltered | IC50 of bortezomib in the presence of 5F11 (L428 cells [2]; L428, 5F11 + GaH pre-incubated 30 minutes, versus absence of 5F11, 48 hours): decreased; IC50 of bortezomib in the presence of 5F11 (L540 cells [3]; L540, 5F11 + GaH pre-incubated 30 minutes, versus absence of 5F11, 48 hours): decreased; cell viability (XTT) (L540 cells [3]; L540, bortezomib 25 ng/ml, with or without pre-treatment with subtoxic 5F11 + GaH, 48 h): minimal reduction of viability; 5F11-induced NF-κB staining increase and nuclear accumulation in the presence of bortezomib ([5]; L540, bortezomib given 30 minutes after 5F11 stimulation, observed after 6 and 8 hours): inhibited; 5F11-induced activation of the NF-κB reporter gene in the presence of bortezomib [6]: supressed; basal activity of the NF-κB reporter [6]: reduced; IC50 of bortezomib in the presence of 5F11 (Karpas 299 cells): decreased; cytotoxicity (XTT) (REH cells [8]): killed by bortezomib in a dose dependent manner
3 | B1 | did not enhance apoptosis | significantly delayed tumor growth | tumor progression | increased; also recorded: nuclear accumulation | induced strongly | induced strongly | Only minor changes | remained unaltered | binding of 5F11 (staining with GaH-FITC) (L540 cells [9]; L540 cells incubated with 5F11 and FITC labeled crosslinking goat-anti human antibody): All L540 cells were stained; apoptosis on the single cell level (TUNEL assay) (L540 cells [9]; L540 cells, 5F11 crosslinked with GaH, subtoxic concentrations in the combination): only a subset of the cells were rendered apoptotic; enhancement of the cytotoxic activity of bortezomib, reversed sequence (L428 cells [2]; L428 first incubated with bortezomib for 30 minutes, then with the antibody): does not increase; also recorded: did not enhance; activation of the NF-κB reporter gene (luciferase activity) ([6]; stimulation with 5F11): about two-fold; DNA-binding activity of NF-κB (EMSA) [10]: enhanced DNA binding; DNA-binding activity of NF-κB (EMSA) [11]: enhanced DNA binding; effect of pre-incubation with 5F11 on the cytotoxic potential of bortezomib (REH cells [12]): no effect; sensitivity of L428 cells to 5F11 (L428 cells [13]): resistant

Reference: patent US7790160B2, “Method of treating CD30 positive lymphomas” (Medarex, Inc., priority 2004, dated 2010)
